In patent US20250194968A1, “ADMINISTRATION OF AMINOLEVULINIC ACID WITH DELAYED FLUORESCENT IMAGING TO MAP AND QUANTIFY TISSUE OXYGENATION LEVELS” (THE TRUSTEES OF DARTMOUTH COLLEGE, priority 2022, published 2025):

Tested on: subcutaneous human pancreatic adenocarcinoma BxPC3 tumors
Experiment: PpIX delayed/immediate fluorescence imaging of subcutaneous tumors after ALA injection, with palpation
Type: in vivo
Settings: nude mice with BxPC3 tumors, ALA 250 mg/kg intraperitoneal, imaged 6 hours later
Protocol: Nude female mice were inoculated with a single subcutaneous injection of 10^6 human pancreatic adenocarcinoma BxPC3 cells, under the skin on the flank. After approximately 3 weeks of growth, animals were chosen for imaging when their tumor diameter reached approximately 8 mm in size. These nude mice were used in the imaging experiments described below.
ALA was either intraperitoneally injected (250 mg/kg) 6 hours prior to imaging, or topically applied onto a region of interest 3 hours before imaging as Ameluz (Trademark of Biofrontera AG, Leverkusen, Germany), ointment containing 10% ALA, as further described below
Images of tumor in the live mice were acquired using a highly sensitive intensified CMOS camera synchronized with a 50-mW average output power, 635 nm, modulated diode laser using 20 microsecond (μs) pulses at repetition rate of 500 hertz (Hz) providing pulsed fluorescence excitation light. […] Irradiance were measured using a power meter with a photodiode power sensor.
The intensifier of the intensified CMOS camera was directly controlled by circuitry synchronized to the laser pulses. […] Fifty laser pulse gate periods were integrated in each image frame, alternating between immediate fluorescence and delayed fluorescence for even and odd frames, respectively. […]

Structure (SMILES): NCC(=O)CCC(=O)O [ALA, aminolevulinic acid]
- duration of excellent tumor contrast from palpation-induced deoxygenation (after palpation): up to 5 min
- contrast in a pancreatic cancer model relative to surrounding normal oxygenated tissues (delayed fluorescence and DF/IF ratio) (in some examples): 5 factor
